We go through three molecules from PMC4527605 (ACS infectious diseases, 2015).

One may read the MIC as the least concentration at which growth counts as inhibited. As a reminder, the CC50 is the concentration giving 50% cytotoxicity. Low readings indicate greater toxicity to the cells, high ones lower toxicity to the cells. For orientation: IC50 means the midpoint of a concentration-inhibition curve.

The test system of data set [1] is M. tuberculosis H37Rv. Particulars: cited from earlier work.
The subject of data set [2] is M. tuberculosis H37Rv. In words: M. tuberculosis H37Rv growth inhibition. Format: cell-based, Mycobacterium tuberculosis. The conditions noted are these: for MIC: Mycobacterium tuberculosis, H37RV, read-out: Mt = M. tuberculosis H37Rv, MIC, estimated visually from 2x serial dilutions.
The nature of data set [3]: HepG2 cell growth inhibition. The conditions noted are these: human, HepG2 cells. In kind it is cell-based.
In the next data set the test system is B. subtilis. In words: B. subtilis growth inhibition. In kind it is cell-based. Particulars: Bacillus subtilis, read-out: Bs = B. subtilis, IC50.
The next data set deals with S. cerevisiae. In words: S. cerevisiae growth inhibition. Format: cell-based. The conditions noted are these: Saccharomyces cerevisiae, read-out: Sc = S. cerevisiae, IC50.
The test system of the next data set is Trypanosoma brucei. In words: T. brucei 427.
The nature of data set [4]: HEK293T cell growth inhibition. In kind it is cell-based. Particulars: human, HEK293T cells.
The test system of another data set is M. tuberculosis Erdman. In words: M. tuberculosis Erdman growth inhibition. The conditions noted are these: estimated visually from 2x serial dilutions. In kind it is cell-based, Mycobacterium tuberculosis.
A further data set concerns M. smegmatis. In words: M. smegmatis growth inhibition. Format: cell-based, Mycobacterium smegmatis. Particulars: Mycolicibacterium smegmatis, read-out: Ms = M. smegmatis, IC50.
For a further data set, the system named is E. coli. In words: E. coli growth inhibition. Format: cell-based. The conditions noted are these: Escherichia coli, read-out: Ec = E. coli, IC50.
Data set [5] deals with inner mitochondrial membrane potential, Δψ. In words: Mitochondrial membrane potential. In kind it is cell-based, Trypanosoma brucei. The conditions noted are these: PCF, oligomycin 2 μg/ml, Figure 4C.

Values after ≈ are worked out from the molar mass of the structure shown.

As for `CC(C)=CCC/C(C)=C/CNCCNC1C2CC3CC(C2)CC1C3` (centres unmarked) [compound 2, SQ109], the “MIC against M. tuberculosis (previous work)” value in the data set on M. tuberculosis H37Rv [1] is 0.15 µg/mL (≈ 0.454 µM). For the same molecule, in the data set on M. tuberculosis H37Rv [2], the MIC was 0.1 to 0.5 µg/mL (≈ 0.303 to 1.51 µM). The “Mt = M. tuberculosis H37Rv, MIC” value in the data set on M. tuberculosis H37Rv [2] (estimated visually from 2x serial dilutions) is 0.15 µg/mL. Besides, the CC50 is 1.2 µg/mL (≈ 3.63 µM) in [3] and 1.9 µg/mL (≈ 5.75 µM) in [4]. The IC50 in the data set with B. subtilis came out at 7.6 µg/mL (≈ 23 µM); in the data set on S. cerevisiae it was 1.1 µg/mL (≈ 3.33 µM); in the data set on Trypanosoma brucei (Trypanosoma brucei, 72 h, read-out: Tb = Trypanosoma brucei, IC50) it was 0.078 ± 0.001 µg/mL (≈ 0.236 µM); with M. smegmatis, 3.1 µg/mL (≈ 9.38 µM); in the data set on E. coli it was 2.8 µg/mL (≈ 8.47 µM). For the same molecule, the “SI = CC50(HEK293T)/IC50(Tb)” value with Trypanosoma brucei (selectivity index HEK293T vs T. brucei) was 24. Further, the “SI = CC50(HepG2)/IC50(Tb)” value in the data set on Trypanosoma brucei (selectivity index HepG2 vs T. brucei) came out at 15. Moreover, the “MtE = M. tuberculosis Erdman, MIC” value in the data set on M. tuberculosis Erdman was 0.50 µg/mL; with M. tuberculosis Erdman (listed as SQ109), 0.1 to 0.5 µg/mL.
In the case of `CC[C@H]1/C=C/C=C/C[C@@H](C)[C@H](O)[C@@](C)(O)C(=O)[C@@H](C)[C@H](O)[C@@H](C)C(=O)[C@@H](C)[C@H](O)[C@@H](C)/C=C/C(=O)O[C@@H]2[C@H](C)[C@H](CC1)O[C@]1(CC[C@H](C)[C@H](C[C@@H](C)O)O1)[C@H]2C` [oligomycin], the “effect on ADP phosphorylation by T. brucei mitochondria (Δψ decrease after ADP)” value in data set [5] is given as “inhibited”.
As to `CC[C@@H](CO)NCCN[C@@H](CC)CO` [compound 1, ethambutol], the MIC in the data set on M. tuberculosis H37Rv [2] is 2 µg/mL (≈ 9.79 µM). Also, the IC50 in the data set on M. smegmatis turned out to be 1 µg/mL (≈ 4.89 µM).
